Test: Phase I safety, DLT and MTD in patients with solid tumours
Assay type: in vivo
Text: This was a phase I, multicentre, open-label study, conducted to investigate the safety, pharmacokinetics (PKs), and determine the maximum tolerated dose (MTD) of oral TAK-285 in patients with solid tumours. Two cohorts were planned for this study: a dose escalation cohort and a repeated administration cohort. In the dose escalation cohort, patients received a single oral dose of TAK-285, followed by 2–6 days of observation without treatment, followed by treatment with the same dose if the safety was confirmed. In this cohort, patients received TAK-285 […]. One cycle was 4 weeks, consisting of 3 weeks of treatment and 1 week of observation without treatment. TAK-285 was given once daily (q.d.) or twice daily (b.i.d.). The dose was escalated from a starting dose of 50 mg until the MTD was determined. In the repeated administration cohort, patients were treated with oral TAK-285 at the MTD for at least 4 weeks in order to confirm safety.
In the dose escalation cohort, the dose of TAK-285 was decided by consideration of adverse events (AEs) observed during the first cycle. […] Dose escalation was continued until the MTD was determined. The dose of TAK-285 was increased by 100 or 40% in accordance with accelerated titration designs reported previously ([Simon et al, 1997]). A DLT was defined as any TAK-285-related grade 4 haematological toxicity, grade 3 or worse non-haematological toxicity, grade 3 or worse neutropenia (<1000 mm^–3) with fever of 38 °C or higher, or toxicity resulting in cessation of treatment for >21 consecutive days (including the stipulated period of observation without treatment).
Safety evaluations included vital signs (oxygen saturation, body temperature, breathing rate, blood pressure and pulse), clinical laboratory tests, lung function tests (pulmonary surfactant protein-A, pulmonary surfactant protein-D, Krebs von den Lunge-6 and arterial blood gas analysis), chest X-ray, and 12-lead electrocardiogram (ECG). These tests were performed weekly with the exception of chest X-rays (every 4 weeks), arterial blood gas analysis (at screening) and ECG (4 time points each at screening, on day 1 and day 8, after DLT assessment, one time point every 4 weeks). All ECG charts were submitted to the ECG evaluation committee to assess cardiac function. Adverse events were graded based on the National Cancer Institute Common Toxicity Criteria for Adverse Events, version 3.0 (Bethesda, MD, USA).

Q: Which “patients who died during the study” value (cause considered unrelated to TAK-285) does the source give for `CC(C)(O)CC(=O)NCCn1ccc2ncnc(Nc3ccc(Oc4cccc(C(F)(F)F)c4)c(Cl)c3)c21` [TAK-285] here?
A: The value was “Two”.

Q: And the “Alanine aminotransferase increased ⩾Grade 3, number of patients” value (human, in vivo)?
A: Its value is 4.

Q: What about the “Alanine aminotransferase increased, incidence” value (human, in vivo) of the same compound?
A: Its value is 46.2%.

Q: What about the “Alanine aminotransferase increased, number of patients” value (human, in vivo) of the same compound?
A: Its value is 12.

Q: And the “Any adverse events ⩾Grade 3, number of patients” value (human, in vivo)?
A: The value was 12.

Q: And the “Any adverse events, incidence” value (human, in vivo)?
A: Its value is 100.0%.

Q: And the “Any adverse events, number of patients” value (human, in vivo)?
A: The value was 26.

Q: What about the “Aspartate aminotransferase increased ⩾Grade 3, number of patients” value (human, in vivo) of the same compound?
A: Its value is 3.

Q: And the “Aspartate aminotransferase increased, incidence” value (human, in vivo)?
A: The value was 46.2%.

Q: What about the “Aspartate aminotransferase increased, number of patients” value (human, in vivo) of the same compound?
A: Its value is 12.

Q: And the “Blood alkaline phosphatase increased ⩾Grade 3, number of patients” value (human, in vivo)?
A: The value was 0.

Q: What about the “Blood alkaline phosphatase increased, incidence” value (human, in vivo) of the same compound?
A: Its value is 19.2%.

Q: What about the “Blood alkaline phosphatase increased, number of patients” value (human, in vivo) of the same compound?
A: The value was 5.

Q: What about the “Blood bilirubin increased ⩾Grade 3, number of patients” value (human, in vivo) of the same compound?
A: The value was 1.

Q: What about the “Blood bilirubin increased, incidence” value (human, in vivo) of the same compound?
A: Its value is 34.6%.

Q: What about the “Blood bilirubin increased, number of patients” value (human, in vivo) of the same compound?
A: Its value is 9.

Q: What about the “Blood creatinine increased ⩾Grade 3, number of patients” value (human, in vivo) of the same compound?
A: The value was 0.

Q: What about the “Blood creatinine increased, incidence” value (human, in vivo) of the same compound?
A: The value was 11.5%.

Q: What about the “Blood creatinine increased, number of patients” value (human, in vivo) of the same compound?
A: Its value is 3.

Q: And the “Blood lactate dehydrogenase increased ⩾Grade 3, number of patients” value (human, in vivo)?
A: Its value is 1.

Q: What about the “Blood lactate dehydrogenase increased, incidence” value (human, in vivo) of the same compound?
A: The value was 19.2%.

Q: And the “Blood lactate dehydrogenase increased, number of patients” value (human, in vivo)?
A: Its value is 5.

Q: What about the “Cancer pain ⩾Grade 3, number of patients” value (human, in vivo) of the same compound?
A: Its value is 1.

Q: What about the “Cancer pain, incidence” value (human, in vivo) of the same compound?
A: The value was 19.2%.

Q: And the “Cancer pain, number of patients” value (human, in vivo)?
A: The value was 5.

Q: And the “Constipation ⩾Grade 3, number of patients” value (human, in vivo)?
A: Its value is 0.

Q: And the “Constipation, incidence” value (human, in vivo)?
A: The value was 26.9%.

Q: What about the “Constipation, number of patients” value (human, in vivo) of the same compound?
A: The value was 7.

Q: And the “Decreased appetite ⩾Grade 3, number of patients” value (human, in vivo)?
A: Its value is 2.

Q: What about the “Decreased appetite, incidence” value (human, in vivo) of the same compound?
A: Its value is 23.1%.

Q: What about the “Decreased appetite, number of patients” value (human, in vivo) of the same compound?
A: The value was 6.

Q: And the “Diarrhoea ⩾Grade 3, number of patients” value (human, in vivo)?
A: The value was 0.

Q: And the “Diarrhoea, incidence” value (human, in vivo)?
A: The value was 34.6%.

Q: And the “Diarrhoea, number of patients” value (human, in vivo)?
A: Its value is 9.

Q: And the “Dry skin ⩾Grade 3, number of patients” value (human, in vivo)?
A: Its value is 0.

Q: What about the “Dry skin, incidence” value (human, in vivo) of the same compound?
A: The value was 15.4%.

Q: And the “Dry skin, number of patients” value (human, in vivo)?
A: The value was 4.

Q: What about the “Gamma-glutamyltransferase increased ⩾Grade 3, number of patients” value (human, in vivo) of the same compound?
A: Its value is 4.

Q: And the “Gamma-glutamyltransferase increased, incidence” value (human, in vivo)?
A: The value was 26.9%.

Q: What about the “Gamma-glutamyltransferase increased, number of patients” value (human, in vivo) of the same compound?
A: Its value is 7.

Q: And the “Haemoglobin decreased ⩾Grade 3, number of patients” value (human, in vivo)?
A: The value was 1.

Q: And the “Haemoglobin decreased, incidence” value (human, in vivo)?
A: The value was 11.5%.

Q: What about the “Haemoglobin decreased, number of patients” value (human, in vivo) of the same compound?
A: The value was 3.

Q: And the “Nausea ⩾Grade 3, number of patients” value (human, in vivo)?
A: The value was 0.

Q: What about the “Nausea, incidence” value (human, in vivo) of the same compound?
A: Its value is 19.2%.

Q: What about the “Nausea, number of patients” value (human, in vivo) of the same compound?
A: Its value is 5.

Q: What about the “Pyrexia ⩾Grade 3, number of patients” value (human, in vivo) of the same compound?
A: The value was 0.

Q: And the “Pyrexia, incidence” value (human, in vivo)?
A: Its value is 23.1%.

Q: And the “Pyrexia, number of patients” value (human, in vivo)?
A: The value was 6.

Q: And the “Rash ⩾Grade 3, number of patients” value (human, in vivo)?
A: Its value is 0.

Q: What about the “Rash, incidence” value (human, in vivo) of the same compound?
A: The value was 42.3%.

Q: And the “Rash, number of patients” value (human, in vivo)?
A: The value was 11.

Q: And the “Stomatitis ⩾Grade 3, number of patients” value (human, in vivo)?
A: The value was 0.

Q: What about the “Stomatitis, incidence” value (human, in vivo) of the same compound?
A: Its value is 11.5%.

Q: And the “Stomatitis, number of patients” value (human, in vivo)?
A: The value was 3.

Q: And the “Vomiting ⩾Grade 3, number of patients” value (human, in vivo)?
A: Its value is 0.

Q: What about the “Vomiting, incidence” value (human, in vivo) of the same compound?
A: Its value is 15.4%.

Q: And the “Vomiting, number of patients” value (human, in vivo)?
A: Its value is 4.

Q: And the “grade 4 AEs related to TAK-285” value (human, in vivo)?
A: The value was “no grade 4 AEs”.

Q: What about the grade of diarrhoea (human, in vivo) of the same compound?
A: Its grade of diarrhoea is at most 2 grade.

Q: And the grade of rash (human, in vivo)?
A: The grade of rash was at most 2 grade.

Q: What about the “lung function tests, chest X-rays, vital signs or ECGs” value (human, in vivo) of the same compound?
A: Its value is “No clinically significant changes”.

Q: What about the “patients with AEs considered related to TAK-285, number” value (human, in vivo) of the same compound?
A: Its value is 22.

Q: What about the “patients with AEs considered related to TAK-285, percent” value (human, in vivo) of the same compound?
A: Its value is 84.6%.

Q: And the “patients with dose-limiting toxicities” value (human, in vivo)?
A: Its value is “two”.

Q: And the pneumonitis (human, in vivo)?
A: The pneumonitis was “not reported”.

Q: And the “related AEs grade 2, number of patients” value (human, in vivo)?
A: The value was 11.

Q: And the “related AEs grade 2, percent of patients” value (human, in vivo)?
A: The value was 42.3%.

Q: What about the “related AEs grade 2 or lower, number of patients” value (human, in vivo) of the same compound?
A: The value was 17.

Q: What about the “related AEs grade 2 or lower, percent of patients” value (human, in vivo) of the same compound?
A: The value was 65.4%.

Q: What about the “related AEs grade 3, number of patients” value (human, in vivo) of the same compound?
A: The value was 5.

Q: And the “related AEs grade 3, percent of patients” value (human, in vivo)?
A: The value was 19.2%.

Q: And the “maximum tolerated dose (MTD)” value (oral, patients with solid tumours)?
A: Its value is 300 mg b.i.d.
